The source made the active and inactive calls.
Tests used:
[1] = target: FAD-linked sulfhydryl oxidase ALR (Homo sapiens, UniProt P55789); assay: ALR-catalysed DTT oxidation blockers – biochemical, H2O2 detection, luminescence, cherry-pick, dose response (AID 493248)
cells = format: functional
[2] = target: Glyceraldehyde-3-phosphate dehydrogenase (Homo sapiens, UniProt P04406)
[3] = viability of PTEN-deleted HCT116 cells – cell-based, HCT116 PTEN knockout, dose response (AID 1047); format: functional;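 also: HCT116 colon tumor cells with PTEN knocked out; cells exposed to compound for 60 hours before readout; potency for loss of cell viability measured by luminescence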
[4] = viability of HCT116 lacking mutant beta-catenin – cell-based, human colon tumor, dose response (AID 1045); format: functional;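 also: HCT116 colon tumor cells with beta catenin knocked out; cells exposed to compound for 60 hours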
[5] = target: T1, Heat shock factor protein 1 (Mus musculus, UniProt P38532); assay: enhancement of HSF1-driven luciferase signal – cell-based, NIH3T3, luminescence, dose retest, confirmation (AID 435004); format: functional;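 also: stress induced by proteasome inhibitor MG132 added 30 min after compound; luciferase reporter driven by HSF1 response element in NIH3T3 cells; actives raise luminescence as potentiators of the MG132 stress response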
T1 sequence (P38532 whole entry): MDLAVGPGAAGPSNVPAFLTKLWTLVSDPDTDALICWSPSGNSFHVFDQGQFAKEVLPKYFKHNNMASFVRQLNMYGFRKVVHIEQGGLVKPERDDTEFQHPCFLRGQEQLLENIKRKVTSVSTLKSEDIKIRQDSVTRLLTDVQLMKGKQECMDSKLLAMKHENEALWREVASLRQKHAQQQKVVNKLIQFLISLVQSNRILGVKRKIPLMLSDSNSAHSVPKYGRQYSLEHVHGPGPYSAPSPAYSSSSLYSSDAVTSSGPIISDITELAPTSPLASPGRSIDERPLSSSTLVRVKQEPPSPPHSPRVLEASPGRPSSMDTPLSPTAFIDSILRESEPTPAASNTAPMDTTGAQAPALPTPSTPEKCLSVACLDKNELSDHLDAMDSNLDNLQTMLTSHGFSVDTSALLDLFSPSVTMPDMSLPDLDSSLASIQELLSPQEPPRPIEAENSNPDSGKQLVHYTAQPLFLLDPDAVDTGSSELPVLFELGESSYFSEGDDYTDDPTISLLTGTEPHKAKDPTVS

[6] = target: T2, Carboxy-terminal domain RNA polymerase II polypeptide A small phosphatase 1 (Homo sapiens, UniProt Q9GZU7); assay: CTDSP1 inhibitors, concentration-response, biochemical, absorbance readout, ultra-high-throughput screen actives (AID 540297); format: functional
T2 sequence (Q9GZU7 whole entry): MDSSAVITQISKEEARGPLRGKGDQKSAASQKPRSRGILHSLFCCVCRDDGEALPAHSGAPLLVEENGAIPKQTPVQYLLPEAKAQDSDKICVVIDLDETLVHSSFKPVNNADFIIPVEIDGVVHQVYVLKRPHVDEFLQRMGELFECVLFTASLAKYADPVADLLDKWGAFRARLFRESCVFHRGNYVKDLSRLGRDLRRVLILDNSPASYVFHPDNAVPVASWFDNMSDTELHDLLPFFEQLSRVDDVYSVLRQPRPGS

[7] = microbe, parasite or virus in culture; format: functional; settings: Mycobacterium tuberculosis
Cytochrome P450 1A2 = target: T3, Cytochrome P450 1A2 (Homo sapiens, UniProt P05177);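 also: PubChem cytochrome P450 panel assay, CYP1A2 panel member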
T3 sequence (P05177 whole entry): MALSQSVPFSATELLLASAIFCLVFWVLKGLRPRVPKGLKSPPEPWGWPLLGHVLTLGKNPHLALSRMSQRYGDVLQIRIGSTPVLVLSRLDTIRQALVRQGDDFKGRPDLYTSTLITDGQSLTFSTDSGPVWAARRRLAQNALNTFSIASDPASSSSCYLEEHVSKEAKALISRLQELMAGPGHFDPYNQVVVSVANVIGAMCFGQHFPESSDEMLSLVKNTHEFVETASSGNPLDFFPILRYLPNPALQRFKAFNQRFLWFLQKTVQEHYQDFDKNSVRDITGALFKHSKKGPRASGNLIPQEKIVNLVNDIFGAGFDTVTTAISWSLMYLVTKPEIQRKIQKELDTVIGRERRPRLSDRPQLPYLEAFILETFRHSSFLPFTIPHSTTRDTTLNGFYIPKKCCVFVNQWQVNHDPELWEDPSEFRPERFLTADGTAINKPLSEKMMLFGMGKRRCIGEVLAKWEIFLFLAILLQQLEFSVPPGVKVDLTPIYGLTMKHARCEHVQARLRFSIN

P388/ADR = assay: cells; format: functional; settings: Mus musculus
SN12K1 = assay: cells; format: functional; settings: Homo sapiens
P388 = assay: cells; format: functional; settings: Mus musculus
[8] = target: T4, Replicative DNA helicase DnaB (Mycobacterium tuberculosis, UniProt P9WMR3); assay: DnaB intein splicing inhibitors, dose response, biochemical, cell-free fluorescence (AID 449749); format: functional
T4 sequence (P9WMR3 whole entry): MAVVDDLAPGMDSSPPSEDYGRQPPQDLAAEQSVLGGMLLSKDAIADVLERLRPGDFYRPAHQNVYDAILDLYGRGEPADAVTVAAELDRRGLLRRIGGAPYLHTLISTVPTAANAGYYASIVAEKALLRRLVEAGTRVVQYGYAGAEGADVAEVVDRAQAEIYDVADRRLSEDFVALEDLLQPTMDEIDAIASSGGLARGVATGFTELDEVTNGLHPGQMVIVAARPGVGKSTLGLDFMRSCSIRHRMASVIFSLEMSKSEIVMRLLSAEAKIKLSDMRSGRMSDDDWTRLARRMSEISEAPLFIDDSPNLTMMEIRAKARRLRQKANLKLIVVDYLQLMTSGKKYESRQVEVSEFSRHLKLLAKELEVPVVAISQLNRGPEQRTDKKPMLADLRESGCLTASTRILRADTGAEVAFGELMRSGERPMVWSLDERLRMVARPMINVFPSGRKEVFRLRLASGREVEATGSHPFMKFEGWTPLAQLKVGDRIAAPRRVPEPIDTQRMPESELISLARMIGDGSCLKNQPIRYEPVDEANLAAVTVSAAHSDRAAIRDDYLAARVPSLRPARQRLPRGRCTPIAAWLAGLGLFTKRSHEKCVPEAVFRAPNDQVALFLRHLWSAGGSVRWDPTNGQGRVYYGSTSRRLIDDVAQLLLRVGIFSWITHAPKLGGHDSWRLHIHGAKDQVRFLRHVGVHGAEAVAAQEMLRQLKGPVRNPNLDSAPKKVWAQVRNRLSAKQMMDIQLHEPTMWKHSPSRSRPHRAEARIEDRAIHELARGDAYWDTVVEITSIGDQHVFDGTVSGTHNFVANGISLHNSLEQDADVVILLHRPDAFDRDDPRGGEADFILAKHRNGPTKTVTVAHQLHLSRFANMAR

Protein RecA = target: T5, Protein RecA (Mycobacterium tuberculosis, UniProt P9WHJ3); assay: Fluorescence Cell-Free Homogeneous Dose Retest to Identify Inhibitors of RecA-Intein Splicing Activity. [Related pubchem assays (depositor defined):AID2097, AID2223, AID489010, AID492950]; format: functional
T5 sequence (P9WHJ3 whole entry): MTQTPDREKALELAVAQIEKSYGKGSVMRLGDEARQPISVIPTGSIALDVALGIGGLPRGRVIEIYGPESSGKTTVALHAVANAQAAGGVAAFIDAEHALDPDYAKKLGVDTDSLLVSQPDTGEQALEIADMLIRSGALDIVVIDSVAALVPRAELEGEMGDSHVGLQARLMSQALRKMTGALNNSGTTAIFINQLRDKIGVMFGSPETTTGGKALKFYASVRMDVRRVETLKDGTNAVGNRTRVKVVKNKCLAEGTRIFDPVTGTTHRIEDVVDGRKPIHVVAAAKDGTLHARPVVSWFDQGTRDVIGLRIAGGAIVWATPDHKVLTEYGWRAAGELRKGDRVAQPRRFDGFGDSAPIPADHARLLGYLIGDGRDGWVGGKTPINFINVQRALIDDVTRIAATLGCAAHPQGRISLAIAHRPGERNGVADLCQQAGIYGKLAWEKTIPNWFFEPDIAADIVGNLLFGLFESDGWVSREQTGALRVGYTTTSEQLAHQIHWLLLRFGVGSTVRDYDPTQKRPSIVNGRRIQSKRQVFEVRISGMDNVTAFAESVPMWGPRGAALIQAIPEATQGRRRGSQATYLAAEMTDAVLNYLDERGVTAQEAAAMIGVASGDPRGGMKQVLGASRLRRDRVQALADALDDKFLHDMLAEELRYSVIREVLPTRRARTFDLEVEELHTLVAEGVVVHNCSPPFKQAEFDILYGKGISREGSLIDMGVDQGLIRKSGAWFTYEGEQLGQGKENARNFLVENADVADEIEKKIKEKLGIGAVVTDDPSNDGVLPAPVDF

Glyceraldehyde-3-phosphate dehydrogenase, sequence (P04406 whole entry): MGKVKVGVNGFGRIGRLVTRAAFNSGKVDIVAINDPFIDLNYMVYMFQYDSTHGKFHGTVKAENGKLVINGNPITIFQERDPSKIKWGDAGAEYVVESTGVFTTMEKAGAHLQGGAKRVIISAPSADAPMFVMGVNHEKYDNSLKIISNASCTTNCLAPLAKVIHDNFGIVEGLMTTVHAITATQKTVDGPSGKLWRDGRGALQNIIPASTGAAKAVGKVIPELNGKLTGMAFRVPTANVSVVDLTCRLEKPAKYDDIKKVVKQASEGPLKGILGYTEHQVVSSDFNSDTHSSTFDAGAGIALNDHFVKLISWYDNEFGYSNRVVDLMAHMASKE
FAD-linked sulfhydryl oxidase ALR, sequence (P55789 whole entry): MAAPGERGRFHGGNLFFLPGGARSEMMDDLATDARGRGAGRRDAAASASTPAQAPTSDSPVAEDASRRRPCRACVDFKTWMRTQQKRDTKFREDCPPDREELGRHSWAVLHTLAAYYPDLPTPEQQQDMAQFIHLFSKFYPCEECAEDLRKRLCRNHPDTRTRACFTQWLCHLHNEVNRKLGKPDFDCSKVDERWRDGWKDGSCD

With `O=C(NNCc1ccc(O)cc1)c1ccccc1Cl` as the compound, how does the AC50 [1] read?
The AC50 was 0.695 µM (active).

With `CCCc1cc(C(=O)N2CCCC(Nc3ccc(C)c(C)c3)C2)n(C)n1` (centres undefined) as the compound, how does the AC50 [1] read?
Its AC50 is 3.84 µM (active).

Which IC50 (cells) does the source give for `CCOC(=O)C1CCCc2c1[nH]c1c(C(N)=O)cccc21` (centres undefined) here?
The IC50 was 5.22 µM (active).

Which IC50 [2] does the source give for `CN1CCN(C2=C(Cl)C(=O)N(c3ccc(C(F)(F)F)cc3)C2=O)CC1` here?
Its IC50 is > 50 µM (inconclusive).

With `N#Cc1ccc(-c2ccc(F)cc2)nc1Oc1ccc(Cl)c(Cl)c1` as the compound, how does the EC50 [3] read?
The EC50 was 7.18 µM (active).

What about the EC50 [4] of the same compound?
The EC50 was 3.8 µM (active).

For `CCOc1ccc(CCNc2ccc3nnc(-c4ccccc4)n3n2)cc1OCC`, which EC50 [3] is on record?
The EC50 was 12.7 µM (active).

And the EC50 [4]?
Its EC50 is 26.3 µM (active).

What does the source list for `Cc1ncc([N+](=O)[O-])n1CCOC(=O)c1cc(Cl)cc(Cl)c1N`?
EC50 [5]: > 260 µM (inactive); IC50 [6]: 6.77 µM (active)

With `CCOc1ccc(C(CC(=O)O)CC(=O)O)cc1` as the compound, how does the IC50 [2] read?
The IC50 was > 100 µM (not active).

Which results are given for `O=C(NNc1nc2ccccc2s1)c1ccccc1F`?
CC50 [7]: > 40 µM (active); AC50 [1]: 14.2 µM (active); AC50 (Cytochrome P450 1A2): 14.1 µM (inconclusive)

Which IC50 [6] does the source give for `O=C(NNC(=O)c1ccc(-c2ccccc2)cc1)c1ccccc1` here?
The IC50 was 11.2 µM (active).

For `COc1ccc(N2C(=O)C(F)(F)C2c2cccc(F)c2)cc1` (centres undefined), which IC50 (cells) is on record?
The IC50 was 5.74 µM (active).

For `COc1ccc(CCNC(=O)c2cc(-c3cc(C)ccc3O)n[nH]2)cc1OC`, which AC50 [1] is on record?
The AC50 was 85.6 µM (active).

Which GI50 (P388/ADR) does the source give for `COc1cc([C@@H]2c3cc4c(c(O)c3C[C@H]3COC(=O)[C@@H]32)OCO4)cc(OC)c1O` here?
Its GI50 is 0.02 µM (active).

And the GI50 (SN12K1)?
The GI50 was 0.0208 µM (active).

And the GI50 (P388)?
Its GI50 is 0.0261 µM (active).

Which results are given for `O=C1C(Cl)=C(N2CCOCC2)C(=O)N1c1cccc(C(F)(F)F)c1`?
IC50 [2]: > 50 µM (inconclusive); AC50 [8]: 1.16 µM (inconclusive); EC50 (Protein RecA): 1.64 µM (active)

Which results are given for `O=C1C2=C(C3=NCCc4c[nH]c1c43)c1c(cc(Br)c(O)c1Br)CCN2`?
GI50 (P388/ADR): 10.2 µM (inactive); GI50 (SN12K1): 6.97 µM (inactive); GI50 (P388): 3.37 µM (inactive)

Which IC50 (cells) does the source give for `CC(OC(=O)c1ccc2c(=O)n3c(nc2c1)CCCCC3)C(=O)Nc1ccc(Cl)cn1` (centres undefined) here?
Its IC50 is 20.3 µM (active).

For `O=C1/C(=C/c2c[nH]c3ccccc23)CCC/C1=C\c1c[nH]c2ccccc12`, which EC50 [3] is on record?
The EC50 was 14.4 µM (active).

And the EC50 [4]?
The EC50 was 16.8 µM (active).

— ChEMBL document CHEMBL1201862, “PubChem BioAssay data set” (2004)
